Source: US8148372B2 (AstraZeneca AB, priority 2008, dated 2012)
≈ marks a conversion by molar mass, not a printed value.

Legend:
[1] = target: T1, human mGluR2 (Homo sapiens, UniProt Q14416); assay: [35S]-GTPγS binding assay, membranes from CHO cells stably expressing human mGluR2; type: biochemical; conditions: for Emax: 0.5 h, Emax relative to the maximum glutamate effect, 1 μM glutamate, read-out: Hu GTPgS Median Top Effect; for EC50: allosteric activator activity in presence of 1 μM glutamate, CHO membranes, human mGluR2, read-out: Hu GTPgS EC50
T1 construct: expressed in transfected cells; host or cells: CHO cells, stably transfected; membranes
T1 sequence (Q14416 19-872): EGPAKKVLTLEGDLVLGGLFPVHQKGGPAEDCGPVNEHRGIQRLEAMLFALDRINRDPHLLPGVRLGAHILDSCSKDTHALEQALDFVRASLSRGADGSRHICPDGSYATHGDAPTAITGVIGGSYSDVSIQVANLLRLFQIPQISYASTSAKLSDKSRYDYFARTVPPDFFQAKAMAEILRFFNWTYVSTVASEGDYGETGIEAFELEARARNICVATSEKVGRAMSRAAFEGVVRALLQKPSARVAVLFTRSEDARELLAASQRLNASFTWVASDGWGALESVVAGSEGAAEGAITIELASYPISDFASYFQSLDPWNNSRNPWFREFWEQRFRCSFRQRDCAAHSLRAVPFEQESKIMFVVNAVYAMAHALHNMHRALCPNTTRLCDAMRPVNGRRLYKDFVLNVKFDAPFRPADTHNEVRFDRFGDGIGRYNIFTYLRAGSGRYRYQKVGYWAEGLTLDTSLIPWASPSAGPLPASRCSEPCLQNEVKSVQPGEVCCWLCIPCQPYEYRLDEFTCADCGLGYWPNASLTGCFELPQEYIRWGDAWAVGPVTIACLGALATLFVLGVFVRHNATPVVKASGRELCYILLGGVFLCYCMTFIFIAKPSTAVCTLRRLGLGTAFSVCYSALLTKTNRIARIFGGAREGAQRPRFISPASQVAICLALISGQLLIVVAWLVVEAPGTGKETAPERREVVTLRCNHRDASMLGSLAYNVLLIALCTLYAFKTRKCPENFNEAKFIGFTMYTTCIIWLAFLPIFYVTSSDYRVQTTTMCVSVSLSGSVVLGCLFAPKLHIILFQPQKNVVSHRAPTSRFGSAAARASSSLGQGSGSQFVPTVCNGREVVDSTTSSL
Procedure: A [^35S]-GTPγS binding assay was used to functionally assay mGluR2 receptor activation. The allosteric activator activity of compounds at the human mGluR2 receptor were measured using a [^35S]-GTPγS binding assay with membranes prepared from CHO cells that stably express the human mGluR2. The assay is based upon the principle that agonists bind to G-protein coupled receptors to stimulate GDP-GTP exchange at the G-protein. Since [^35S]-GTPγS is a non-hydrolyzable GTP analog, it can be used to provide an index of GDP-GTP exchange and, thus, receptor activation. The GTPγS binding assay therefore provides a quantitative measure of receptor activation.
Membranes were prepared from CHO cells stably transfected with human mGluR2. Membranes (30 μg protein) were incubated with test compound (3 nM to 300 μM) for 15 minutes at room temperature prior to the addition of 1 μM glutamate, and incubated for 30 min at 30° C. in 500 μl assay buffer (20 mM HEPES, 100 mM NaCl, 10 mM MgCl2), containing 30 μM GDP and 0.1 nM [^35S]-GTPγS (1250 Ci/mmol). Reactions were carried out in triplicate in 2 ml polypropylene 96-well plates. Reactions were terminated by vacuum filtration using a Packard 96-well harvester and Unifilter-96, GF/B filter microplates. The filter plates were washed 4×1.5 ml with ice-cold wash buffer (10 mM sodium phosphate buffer, pH 7.4). The filter plates were dried and 35 μl of scintillation fluid (Microscint 20) was added to each well. The amount of radioactivity bound was determined by counting plates on the Packard TopCount. Data was analyzed using GraphPad Prism, and EC50 and Emax values (relative to the maximum glutamate effect) were calculated using non-linear regression.

[2] = Solubility in pH 7.4 phosphate buffer; type: physicochemical; conditions: aqueous buffer, thermodynamic from solid, equilibration 24 h at 25° C., HPLC-UV and LC-MSMS
Procedure: Solubility was determined in pH 7.4 phosphate buffer after equilibration for 24 h at 25° C. and HPLC-UV and LC-MSMS were used for quantitation.

[3] = target: hERG ion channel (Homo sapiens, UniProt Q12809); assay: hERG activity (process of Bridgland-Taylor et al.); type: cell-based
Chain of hERG ion channel (Q12809 whole entry): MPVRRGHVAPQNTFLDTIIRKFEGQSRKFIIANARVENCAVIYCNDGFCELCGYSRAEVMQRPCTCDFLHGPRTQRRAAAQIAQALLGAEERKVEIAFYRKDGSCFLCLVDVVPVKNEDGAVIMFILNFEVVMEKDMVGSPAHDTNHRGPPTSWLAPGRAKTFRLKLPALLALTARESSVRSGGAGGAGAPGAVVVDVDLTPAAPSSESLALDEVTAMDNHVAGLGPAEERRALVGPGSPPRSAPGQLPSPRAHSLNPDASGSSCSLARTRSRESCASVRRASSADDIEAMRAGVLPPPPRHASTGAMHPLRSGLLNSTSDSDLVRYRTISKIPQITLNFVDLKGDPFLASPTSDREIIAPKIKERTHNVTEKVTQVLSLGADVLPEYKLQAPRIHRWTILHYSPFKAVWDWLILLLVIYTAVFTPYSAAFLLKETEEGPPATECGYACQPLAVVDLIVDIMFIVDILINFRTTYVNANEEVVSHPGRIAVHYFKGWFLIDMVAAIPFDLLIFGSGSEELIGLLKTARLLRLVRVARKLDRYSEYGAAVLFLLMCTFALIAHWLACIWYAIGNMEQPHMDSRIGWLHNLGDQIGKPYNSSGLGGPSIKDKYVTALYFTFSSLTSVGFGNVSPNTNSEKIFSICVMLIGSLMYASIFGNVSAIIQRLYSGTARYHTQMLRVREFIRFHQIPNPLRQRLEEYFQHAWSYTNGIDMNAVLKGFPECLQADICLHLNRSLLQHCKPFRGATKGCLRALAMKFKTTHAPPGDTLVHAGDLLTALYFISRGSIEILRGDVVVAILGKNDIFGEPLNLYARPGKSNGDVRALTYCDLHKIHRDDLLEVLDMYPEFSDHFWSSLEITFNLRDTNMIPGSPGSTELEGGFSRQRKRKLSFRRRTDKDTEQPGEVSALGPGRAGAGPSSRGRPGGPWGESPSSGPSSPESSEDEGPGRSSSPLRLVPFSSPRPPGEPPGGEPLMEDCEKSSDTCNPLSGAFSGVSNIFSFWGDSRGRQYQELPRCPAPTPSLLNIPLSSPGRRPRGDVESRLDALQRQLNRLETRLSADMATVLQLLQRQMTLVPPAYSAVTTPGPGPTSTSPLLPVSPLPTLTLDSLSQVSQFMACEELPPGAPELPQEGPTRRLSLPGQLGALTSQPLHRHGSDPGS
Procedure: hERG activity was assessed using the process described by Bridgland-Taylor, M. H., et al, J. Pharm. Tox. Methods 54 (2006) 189-199.

Compound	Emax [1] [%]	EC50 [1] [nM]	solubility at 24 h [2] [µM]	melting point [°C]	IC50 [3] [µM]
Cc1cc(-c2cc(C(=O)N3CCNCC3)no2)cc2c1C(=O)N([C@@H](C)C1CC1)C2 [Example 16, 2-((S)-1-Cyclopropyl-ethyl)-7-methyl-5-[3-(piperazine-1-carbonyl)-isoxazol-5-yl]-2,3-dihydro-isoindol-1-one]	79	664	435 (≈ 172 µg/mL)	–	> 33
CC(C)N1Cc2cc(-c3cc(C(=O)N4CCCC4)no3)cc(Cl)c2C1=O [Example 9, 7-Chloro-2-isopropyl-5-[3-(pyrrolidine-1-carbonyl)-isoxazol-5-yl]-2,3-dihydro-isoindol-1-one]	101	37	3.57 (≈ 1.33 µg/mL)	–	> 33
Cc1cc(-c2cc(C(=O)N(C)C)no2)cc2c1C(=O)N([C@@H](C)C(F)(F)F)C2 [Example 11, 5-[7-M ethyl-1-oxo-2-((S)-2,2,2-trifluoro-1-methyl-ethyl)-2,3-dihydro-1H-isoindol-5-yl]-isoxazole-3-carboxylic acid dimethylamide]	114	66	4.35 (≈ 1.66 µg/mL)	–	> 33
Cc1cc(-c2cc(C(=O)N(C)C)no2)cc2c1C(=O)N(C(C)C)C2 [Example 5, 5-(2-Isopropyl-7-methyl-1-oxo-2,3-dihydro-1H-isoindol-5-yl)-isoxazole-3-carboxylic acid dimethylamide]	67	425	19.2 (≈ 6.29 µg/mL)	–	> 33
C[C@@H](C1CC1)N1Cc2cc(-c3cc(C(N)=O)no3)cc(Cl)c2C1=O [Example 7, 5-[7-Chloro-2-((S)-1-cyclopropyl-ethyl)-1-oxo-2,3-dihydro-1H-isoindol-5-yl]-isoxazole-3-carboxylic acid amide]	139	230	16.6 (≈ 5.74 µg/mL)	–	> 33
CC(C)N(C)C(=O)c1cc(-c2cc(Cl)c3c(c2)CN([C@@H](C)C2CC2)C3=O)on1 [Example 18, 5-[7-Chloro-2-((S)-1-cyclopropyl-ethyl)-1-oxo-2,3-dihydro-1H-isoindol-5-yl]-isoxazole-3-carboxylic acid isopropyl-methyl-amide]	109	56	4.65 (≈ 1.87 µg/mL)	–	> 33
C[C@H](N1Cc2cc(-c3cc(C(=O)N(C)C)no3)cc(Cl)c2C1=O)C(F)(F)F [Example 17, 5-[7-Chloro-1-oxo-2-((S)-2,2,2-trifluoro-1-methyl-ethyl)-2,3-dihydro-1H-isoindol-5-yl]-isoxazole-3-carboxylic acid dimethylamide]	139	84	15.5 (≈ 6.23 µg/mL)	–	> 33
CNC(=O)c1cc(-c2cc(Cl)c3c(c2)CN([C@@H](C)C2CC2)C3=O)on1 [Example 2, 5-(7-chloro-2-((S)-1-cyclopropylethyl)-1-oxo-2,3-dihydro-1H-isoindolin-5-yl)-N-methylisoxazole-3-carboxamide]	114	600	6.82 (≈ 2.45 µg/mL)	212.3	21
CC(C)N1Cc2cc(-c3cc(C(N)=O)no3)cc(Cl)c2C1=O [Example 3]	117	214	21.4 (≈ 6.84 µg/mL)	–	> 33
C[C@@H](C1CC1)N1Cc2cc(-c3cc(C(=O)N4CCOCC4)no3)cc(Cl)c2C1=O [Example 20, 7-Chloro-2-((S)-1-cyclopropyl-ethyl)-5-[3-(morpholine-4-carbonyl)-isoxazol-5-yl]-2,3-dihydro-isoindol-1-one]	122	85	5.74 (≈ 2.39 µg/mL)	–	> 33
C[C@H](N1Cc2cc(-c3cc(C(=O)N4CCOCC4)no3)cc(Cl)c2C1=O)C(F)(F)F [Example 21, 7-Chloro-5-[3-(morpholine-4-carbonyl)-isoxazol-5-yl]-2-((S)-2,2,2-trifluoro-1-methyl-ethyl)-2,3-dihydro-isoindol-1-one]	106	514	9.32 (≈ 4.14 µg/mL)	–	> 33
CC(C)N1Cc2cc(-c3cc(C(=O)N4CCOCC4)no3)cc(Cl)c2C1=O [Example 15, 7-Chloro-2-isopropyl-5-[3-(morpholine-4-carbonyl)-isoxazol-5-yl]-2,3-dihydro-isoindol-1-one]	100	530	66.3 (≈ 25.8 µg/mL)	–	> 33
CC(C)N1Cc2cc(-c3cc(C(=O)NC4CCCC4)no3)cc(Cl)c2C1=O [Example 14, 5-(7-Chloro-2-isopropyl-1-oxo-2,3-dihydro-1H-isoindol-5-yl)-isoxazole-3-carboxylic acid cyclopentylamide]	97	60	3.53 (≈ 1.37 µg/mL)	–	19

Continued, in another order:

Emax [1] [%]	EC50 [1] [nM]	solubility at 24 h [2] [µM]	melting point [°C]	Compound	IC50 [3] [µM]
78	479	153 (≈ 58.7 µg/mL)	–	Cc1cc(-c2cc(C(=O)N(C)CCO)no2)cc2c1C(=O)N([C@@H](C)C1CC1)C2 [Example 13, 5-[2-((S)-1-Cyclopropyl-ethyl)-7-methyl-1-oxo-2,3-dihydro-1H-isoindol-5-yl]-isoxazole-3-carboxylic acid (2-hydroxy-ethyl)-methyl-amide]	> 33
130	150	9.53 (≈ 3.1 µg/mL)	–	Cc1cc(-c2cc(C(N)=O)no2)cc2c1C(=O)N([C@@H](C)C1CC1)C2 [Example 4, 5-[2-((S)-1-Cyclopropyl-ethyl)-7-methyl-1-oxo-2,3-dihydro-1H-isoindol-5-yl]-isoxazole-3-carboxylic acid amide]	> 33
100	36	11.2 (≈ 4.27 µg/mL)	–	Cc1cc(-c2cc(C(=O)N(C)C(C)C)no2)cc2c1C(=O)N([C@@H](C)C1CC1)C2 [Example 12, 5-[2-((S)-1-Cyclopropyl-ethyl)-7-methyl-1-oxo-2,3-dihydro-1H-isoindol-5-yl]-isoxazole-3-carboxylic acid isopropyl-methyl-amide]	> 33
123	115	31.1 (≈ 11 µg/mL)	–	Cc1cc(-c2cc(C(=O)N(C)C)no2)cc2c1C(=O)N([C@@H](C)C1CC1)C2 [Example 8, 5-[2-((S)-1-Cyclopropyl-ethyl)-7-methyl-1-oxo-2,3-dihydro-1H-isoindol-5-yl]-isoxazole-3-carboxylic acid dimethylamide]	> 33
103	618	54.1 (≈ 20.4 µg/mL)	–	CC(C)N1Cc2cc(-c3cc(C(=O)N(C)CCO)no3)cc(Cl)c2C1=O [Example 10, 5-(7-Chloro-2-isopropyl-1-oxo-2,3-dihydro-1H-isoindol-5-yl)-isoxazole-3-carboxylic acid (2-hydroxy-ethyl)-methyl-amide]	> 33
141	443	273 (≈ 110 µg/mL)	–	C[C@@H](C1CC1)N1Cc2cc(-c3cc(C(=O)N(C)CCO)no3)cc(Cl)c2C1=O [Example 19, 5-[7-Chloro-2-((S)-1-cyclopropyl-ethyl)-1-oxo-2,3-dihydro-1H-isoindol-5-yl]-isoxazole-3-carboxylic acid (2-hydroxy-ethyl)-methyl-amide]	> 33
127	64	33.4 (≈ 12.5 µg/mL)	143.5	C[C@@H](C1CC1)N1Cc2cc(-c3cc(C(=O)N(C)C)no3)cc(Cl)c2C1=O [Example 1, 5-(7-chloro-2-((S)-1-cyclopropylethyl)-1-oxo-2,3-dihydro-1H-isoindolin-5-yl)-N,N-dimethylisoxazole-3-carboxamide]	> 33
110	510	17.5 (≈ 5.94 µg/mL)	–	CNC(=O)c1cc(-c2cc(C)c3c(c2)CN([C@@H](C)C2CC2)C3=O)on1 [Example 6, 5-[2-((S)-1-Cyclopropyl-ethyl)-7-methyl-1-oxo-2,3-dihydro-1H-isoindol-5-yl]-isoxazole-3-carboxylic acid methylamide]	23
